Here are results for 60 compounds from ChEMBL document CHEMBL1201862, “PubChem BioAssay data set” (2004).

One data set addresses Cytochrome P450 2C19 (Homo sapiens, UniProt P33261). Nature of the data set: Cytochrome panel assay with activity outcomes. Panel member name: p450-cyp2c19 Compounds with AC50 equal or less than 10 uM are considered active. Format: functional.
Another data set has as its target Cytochrome P450 2C9 (Homo sapiens, UniProt P11712).
The test system of data set [1] is Streptococcus sp. 'group A'. Nature of the data set: growth inhibition of control SK(-) GAS strain, dose response, counter-screen for streptokinase expression inhibitor project, luminescence, kanamycin, BacTiterGlo, confirmation (AID 1900). It is filed as functional, organism-based. A general note: A counterscreen serves to expose hits that act by an unwanted route or on another target.

The subject of a further data set is Streptococcus. The experiment in a line: Group A Streptococcus viability loss, dose response, counter-screen for streptokinase expression inhibitor project, luminescence, BacTiterGlo (AID 1915).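 Also: potency for reduction of bacterial viability or growth.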 Format: functional, organism-based.
Data set [2] in a line: Luminescence Cell-Based Dose Retest to Confirm Inhibitors of Cancer Stem Cells. [Related pubchem assays (depositor defined):AID2717, AID2721]. Format: functional. The settings on record: Homo sapiens.
The nature of data set [3]: inhibitors of intracellular T. cruzi replication, confirmation, NIH3T3 host cells, beta-gal luminescence (AID 2044).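 Also: intracellular parasites grown in NIH/3T3 mouse fibroblasts as host cells; luminescent beta-galactosidase reporter signal from transgenic T. cruzi replicating inside host cells; inhibitors lower the luminescence signal.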 It is filed as functional, cell-based.
Data set [4] in a line: cytotoxicity toward NIH3T3 fibroblasts, dose response, counter-screen, cell-based, ATP luminescence, mouse fibroblasts (AID 2010).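 Also: cells exposed to compound for about 90 hours before reading.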 It is filed as functional.
Another data set concerns the target Cytochrome P450 2D6 (Homo sapiens, UniProt P10635).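 Also: CYP2D6 member of a cytochrome P450 panel assay.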

Structures are written as SMILES. Activity calls are given as the source filed them.

Sequence of Cytochrome P450 2C19 (P33261 whole entry): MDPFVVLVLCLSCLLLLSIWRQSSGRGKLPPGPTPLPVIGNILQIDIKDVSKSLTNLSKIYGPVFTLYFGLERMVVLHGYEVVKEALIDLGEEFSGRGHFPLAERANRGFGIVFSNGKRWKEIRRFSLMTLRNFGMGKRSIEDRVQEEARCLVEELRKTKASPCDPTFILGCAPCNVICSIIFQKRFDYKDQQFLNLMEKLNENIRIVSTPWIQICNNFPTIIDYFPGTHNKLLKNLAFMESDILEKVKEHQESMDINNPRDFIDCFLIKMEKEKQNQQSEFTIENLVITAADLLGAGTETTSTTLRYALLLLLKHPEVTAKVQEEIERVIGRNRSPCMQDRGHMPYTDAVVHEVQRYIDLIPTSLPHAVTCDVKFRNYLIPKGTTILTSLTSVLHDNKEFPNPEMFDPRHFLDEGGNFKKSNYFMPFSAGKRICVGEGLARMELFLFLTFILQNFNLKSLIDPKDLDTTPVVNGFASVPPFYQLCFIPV
Sequence of Cytochrome P450 2C9 (P11712 whole entry): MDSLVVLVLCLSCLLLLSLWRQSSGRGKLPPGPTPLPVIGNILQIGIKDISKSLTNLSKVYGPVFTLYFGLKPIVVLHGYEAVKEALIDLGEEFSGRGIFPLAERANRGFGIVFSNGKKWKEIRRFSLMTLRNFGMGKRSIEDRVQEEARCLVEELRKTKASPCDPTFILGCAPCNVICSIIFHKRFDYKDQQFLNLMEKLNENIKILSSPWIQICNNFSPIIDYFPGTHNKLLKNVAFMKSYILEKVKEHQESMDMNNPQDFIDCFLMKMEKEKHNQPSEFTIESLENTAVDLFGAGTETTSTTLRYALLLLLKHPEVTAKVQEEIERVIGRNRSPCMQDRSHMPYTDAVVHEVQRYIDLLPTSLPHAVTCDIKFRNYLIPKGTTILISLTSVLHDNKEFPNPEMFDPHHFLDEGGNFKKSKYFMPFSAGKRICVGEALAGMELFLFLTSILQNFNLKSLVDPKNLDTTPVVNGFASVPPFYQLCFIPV
Sequence of Cytochrome P450 2D6 (P10635 whole entry): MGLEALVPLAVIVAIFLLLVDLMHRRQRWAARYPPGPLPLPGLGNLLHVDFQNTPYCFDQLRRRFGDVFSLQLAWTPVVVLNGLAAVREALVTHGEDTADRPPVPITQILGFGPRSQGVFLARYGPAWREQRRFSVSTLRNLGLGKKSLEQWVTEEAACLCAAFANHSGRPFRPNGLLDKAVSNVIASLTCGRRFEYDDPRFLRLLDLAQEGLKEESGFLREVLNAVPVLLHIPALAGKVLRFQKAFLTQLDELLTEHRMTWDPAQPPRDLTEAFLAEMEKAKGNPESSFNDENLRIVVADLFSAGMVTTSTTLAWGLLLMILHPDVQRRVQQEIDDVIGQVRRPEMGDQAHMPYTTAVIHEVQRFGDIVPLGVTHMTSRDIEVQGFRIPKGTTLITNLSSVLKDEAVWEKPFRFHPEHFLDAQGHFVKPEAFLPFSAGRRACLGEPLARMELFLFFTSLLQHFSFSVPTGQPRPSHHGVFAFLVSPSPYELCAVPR

The term AC50 denotes the concentration giving half of the maximal activity seen. With `Cc1cc(N)c2ccccc2[n+]1CCCCCCCCCCCCCC[n+]1c(C)cc(N)c2ccccc21`, the results for the AC50 at Cytochrome P450 2C19 (read-out: AC50) and on Cytochrome P450 2C9 were 31.6 µM (inconclusive) and 39.8 µM (inconclusive), respectively. The term EC50 denotes the concentration at which the effect is half-maximal. On to `CCOc1ccc(-n2cc(-c3ccccc3)c3c(S)ncnc32)cc1`, for which the EC50 in data set [1] is 6.95 µM (active); in the data set on Streptococcus, 14.9 µM (active). For the compound `O=c1c2ccccc2nc(/C=C/c2ccccc2F)n1-c1ccccc1O`, the AC50 in data set [2] is 2.4 µM (active). Consider `CCOC(=O)C(C(=O)NCc1ccc(C)cc1)c1ncc(C(F)(F)F)cc1Cl` (stereo not given), for which the AC50 on Cytochrome P450 2C19 (read-out: AC50) is 11.2 µM (inconclusive).

Consider `COc1cccc(CC2(CO)CCCN(Cc3ccc(C)s3)C2)c1` (stereo not given), for which the figures for the half-maximal effective concentration (EC50) in data set [3] and in data set [4] were 0.635 µM (active) and > 30 µM (not active), respectively. `C[C@@H](C(=O)Nc1ccc2ccccc2c1)[C@@H]1C[C@@]1(C)[C@@H](NC(=O)c1ccncc1Cl)c1ccccc1`: on Cytochrome P450 2C9, the AC50 is 39.8 µM (inconclusive). On the same count and under the same terms, in the case of `COc1ccccc1CNc1nc(-c2cccc(C#N)c2)nc2ccccc12` it was 1 µM (inconclusive). As for `CN1CCN(NC(=O)c2cn(-c3ccccc3)nc2-c2cccc(Br)c2)CC1`, the EC50 in data set [3] was 2.81 µM (active); in data set [4] it was 4.99 µM (active).

As to `CC(=O)OC[C@@H]1O[C@@H](O/N=C2/C[C@@H](O)[C@@H](O)[C@@H]3[C@@H]4C(=O)N(C[C@@H]5CCCO5)C(=O)[C@H]4CC[C@@H]23)[C@H](OC(C)=O)[C@H](OC(C)=O)[C@@H]1OC(C)=O`, the AC50 on Cytochrome P450 2D6 was 3.98 µM (inconclusive). Consider `CC1CC2=C(N=C(S)NC2c2cccc(F)c2)/C(=C/c2cccc(F)c2)C1` (stereo not given), for which the 50% effective concentration (EC50) was 1.83 µM (active) in data set [3] and > 60 µM (inconclusive) in data set [4].

Turning to `Cc1ccc(NS(=O)(=O)c2cc3c4c(cccc4c2)C(=O)NC3=O)cc1C`, in data set [2], the AC50 is 5.69 µM (active). On the same count and under the same terms, in the case of `C[C@@]12CCC=C[C@H]1[C@H](c1ccc(F)c(/C=C/c3ccccc3)c1)N(Cc1ccccc1)C2=O` it was 2.84 µM (active). As for `CCCc1nnc(NC(=O)CCC(=O)NCc2ccccc2OC)s1`, the AC50 on Cytochrome P450 2C19 (read-out: AC50) is 11.2 µM (inconclusive). With `O=c1c(-c2cccs2)nc2cnc(N3CCNCC3)nc2n1-c1ccccc1`, the AC50 on Cytochrome P450 2D6 and on Cytochrome P450 2C9 was 20 µM (inconclusive) each time. Turning to `CCCCCc1nnc(NC(=O)C(=O)OCC)s1`, the concentration at half-maximal activity (AC50) at Cytochrome P450 2C9 is 28.2 µM (inconclusive). As for `CCC(=O)Nc1ccc(C(=O)OCC(=O)c2ccc(C)c([N+](=O)[O-])c2)cc1`, the values for the AC50 on Cytochrome P450 2C19 (read-out: AC50) and at Cytochrome P450 2D6 were 11.2 µM (inconclusive) and 35.5 µM (inconclusive), respectively. For the compound `CCc1ccc(-c2cc(C(F)(F)F)n3nc(C(=O)Nc4c(C)nn(Cc5ccccc5C)c4C)cc3n2)s1`, the figures for the EC50 in data set [3] and in data set [4] were 2.21 µM (active) and > 60 µM (inconclusive), respectively. With `CCOc1ccc(CSC2=NCCN2)cc1Cl`, the 50% effective concentration (EC50) in data set [3] is 1.1 µM (active); in data set [4], > 60 µM (not active). As to `CCOc1cc(CNCCCN2CCOCC2)ccc1OCC(=O)NC(C)(C)C`, the EC50 in data set [3] is 0.87 µM (active); in data set [4], > 60 µM (not active).

Turning to `Cn1c(Sc2ccc(-c3cccnc3)n2C)ccc1-c1cccnc1`, the concentration at half-maximal activity (AC50) was 3.16 µM (inconclusive) at Cytochrome P450 2D6 and 3.98 µM (inconclusive) on Cytochrome P450 2C9. As for `CCOc1ccc(CN2CCN(Cc3cc4ccccc4[nH]3)CC2CCO)cc1` (stereo not given), the EC50 was 0.371 µM (active) in data set [3] and > 60 µM (not active) in data set [4]. For `Cc1ccc(CCN2CC(C(=O)NC3CCCC3)CC2=O)cc1` (stereo not given), on Cytochrome P450 2C19 (read-out: AC50), the AC50 is 14.1 µM (inconclusive). Consider `CSc1[nH]c(-c2ccc(C)cc2)nc1S(=O)(=O)c1ccccc1`, for which the AC50 on Cytochrome P450 2C9 is 11.2 µM (inconclusive). With `COc1cccc2c1C(=N)c1c(O)c3c(c(O)c1C2=O)C[C@](O)(C(C)=O)C[C@@H]3O[C@H]1C[C@H](N)[C@@H](O)[C@H](C)O1`, the AC50 on Cytochrome P450 2D6 is 3.16 µM (inconclusive). For the compound `OCCNc1nc(NCCC2=CCCCC2)nc(N2CCOCC2)n1`, the AC50 on Cytochrome P450 2C19 (read-out: AC50) is 15.8 µM (inconclusive). Regarding `CCn1nccc1C(=O)Nc1nc2ccccc2n1CCN1CCCCC1`, the AC50 at Cytochrome P450 2D6 was 4.47 µM (inconclusive).

In the case of `O[C@@H](c1cc([C@@]23C[C@H]4CC[C@@H]2C[C@H](C4)C3)nc2c(Cl)cc(Cl)cc12)[C@@H]1CCCCN1`, the AC50 at Cytochrome P450 2C19 (read-out: AC50) was 0.794 µM (inconclusive); on Cytochrome P450 2D6, 3.16 µM (inconclusive). With `CN(C)c1ncc2nc(CCc3ccccc3)c(=O)n(CCc3ccccc3)c2n1`, at Cytochrome P450 2D6, the AC50 is 7.94 µM (inconclusive).

Regarding `O=C(NNc1ccccc1Br)C(=O)n1ccc2ccccc21`, the concentration at half-maximal activity (AC50) in data set [2] is 3.46 µM (active).

On to `COc1ccccc1C(=O)Nc1ccnn1C1CCN(Cc2cnc(N(C)C)s2)CC1`, for which the half-maximal effective concentration (EC50) was 0.852 µM (active) in data set [3] and > 60 µM (not active) in data set [4]. The like results for `COc1ccc(N2CCN(c3nc(Nc4ccc(C)c(F)c4)nc(N4CCCC4)n3)CC2)cc1` were, in that order, 3.17 µM (active) and > 60 µM (not active). As for `Cc1noc(C)c1C(=O)N1CCC2(CCN(Cc3cc(C(F)(F)F)cc(C(F)(F)F)c3)CC2)CC1`, the AC50 at Cytochrome P450 2D6 was 39.8 µM (inconclusive). For the compound `CC(=O)c1ccc(-c2ccc([C@H]3[C@H]4C=CC[C@@H](C)[C@@H]4C(=O)N3Cc3ccccc3)c(F)c2)cc1`, in data set [2], the AC50 was 5.57 µM (active). On to `N=C(NOC(=O)COc1ccc2ccccc2c1Br)c1ccncc1`, for which the EC50 is 2.84 µM (active) in data set [3] and > 60 µM (not active) in data set [4].

On to `Cn1c(=O)n(Cc2ccc(F)cc2)c(=O)c2c1nc1n2CCCN1C1CCCCC1`, for which the AC50 in data set [2] was 3.33 µM (active). In the case of `FC(F)(F)c1ccc(CNCCc2ccc3c(c2)OCO3)cc1`, the EC50 in data set [3] is 0.308 µM (active); in data set [4] it was > 60 µM (not active). Consider `O=C(CSc1nnc(-c2ccccn2)n1Cc1ccco1)Nc1ccc2c(c1)OCO2`, for which the half-maximal activity concentration (AC50) on Cytochrome P450 2C9 was 15.8 µM (inconclusive). On the same count and under the same terms, as for `Clc1ccccc1CNCC1CCC(CNCc2ccccc2Cl)CC1` (stereo not given), the figure is 1.26 µM (inconclusive). Consider `COc1ccccc1-c1cc(NCc2cccnc2)ncn1`, for which the half-maximal activity concentration (AC50) at Cytochrome P450 2D6 is 20 µM (inconclusive). On to `CCc1nc2c(c(SC)nn2-c2ccccc2)c(N)c1C(=O)OC`, for which the AC50 on Cytochrome P450 2C19 (read-out: AC50) was 25.1 µM (inconclusive); on Cytochrome P450 2C9 it was 1.12 µM (inconclusive). With `CC(NC(=O)CN=C(S)N(Cc1ccccc1)Cc1cccnc1)c1ccccc1` (stereo not given), the EC50 in data set [3] is 0.805 µM (active); in data set [4], 10.8 µM (active). On to `Oc1[nH]c2ccccc2c1N=Nc1ccc(C(F)(F)F)cn1`, for which, on Cytochrome P450 2C19, the AC50 entry is “inconclusive”. As to `O=S(=O)(NCC(c1cccnc1)N1CCN(Cc2ccccc2)CC1)c1cc(F)ccc1F` (stereo not given), the figures for the half-maximal effective concentration (EC50) in data set [3] and in data set [4] were 0.677 µM (active) and > 60 µM (not active), respectively. On to `Nc1nnc(SCC(=O)OCC(=O)NC2CCCCC2)s1`, for which the AC50 in data set [2] is > 195 µM (inactive). `CC(C)C12CC[C@@]3(CC[C@H]4[C@@](C)(CCC[C@]4(C)C(=O)O)[C@@H]3C1)[C@@H](CN)C2`: the AC50 at Cytochrome P450 2C9 is 1.26 µM (inconclusive). As to `COc1ccc(C2NCCc3c2[nH]c2ccccc32)cc1CN1CCc2cc(OC)c(OC)cc2C1C` (stereo not given), the EC50 was 1.98 µM (active) in data set [3] and > 60 µM (not active) in data set [4]. Take `O=C(CSc1ccc(Cl)cc1)Nc1cccc(NC(=O)c2ccco2)c1`: the AC50 on Cytochrome P450 2C9 is 5.01 µM (inconclusive).

On to `Cc1cccc(Cl)c1OCCCCn1ccnc1`, for which the EC50 in data set [3] is 1.62 µM (active); in data set [4] it was > 60 µM (not active). In the case of `COc1ccccc1CCn1c(=O)c(-c2cccc(F)c2)nc2cncnc21`, the AC50 at Cytochrome P450 2D6 is 39.8 µM (inconclusive). For the compound `COc1cc(-c2ccc3c(=O)c4ccccc4n(C)c3c2)cc(OC)c1OC`, the AC50 in data set [2] is 9.62 µM (active). `C[C@@H]1C[C@H](OC(=O)[C@@H](O)c2ccccc2)CC(C)(C)N1C`: on Cytochrome P450 2D6, the AC50 was 15.8 µM (inconclusive). Turning to `Cc1ccnc(NS(=O)(=O)c2ccc(NC(=O)C3CCCNC3=O)cc2)n1` (stereo not given), the AC50 entry at Cytochrome P450 2C19 is “inconclusive”. Regarding `Oc1cc(O)c2c(c1)O[C@@H](c1ccc(O)c(O)c1)[C@H](O[C@@]1(c3cc(O)c(O)c(O)c3)Oc3cc(O)cc(O)c3[C@H](O)[C@@H]1O)C2`, the AC50 is 3.98 µM (inconclusive) on Cytochrome P450 2C19 (read-out: AC50) and 6.31 µM (inconclusive) at Cytochrome P450 2C9. Take `CCOc1cc(/C=C\c2nc(O)nc(O)c2[N+](=O)[O-])ccc1OC(C)CC` (stereo not given): the AC50 in data set [2] was 8.11 µM (active). Consider `Cc1noc(C)c1C(=O)N1CCC[C@@]2(CCN(c3ccccn3)C2)C1`, for which the AC50 at Cytochrome P450 2D6 is 6.31 µM (inconclusive). Consider `Cc1[nH]n(-c2ccccc2)c(=O)c1/C=N/NC(=O)c1ccccc1F`, for which the EC50 is 3.54 µM (active) in data set [1] and 6.72 µM (active) with Streptococcus.

As for `COc1ccc(/C(C)=N/NC(=O)c2ccc(CSc3cccc4cccnc34)cc2)cc1OC`, the AC50 on Cytochrome P450 2C9 was 1.26 µM (inconclusive). As to `Cc1ccc(-c2csc(N/N=C/c3ccco3)n2)cc1`, the AC50 at Cytochrome P450 2C9 was 20 µM (inconclusive). In the case of `CC(C)c1c(CN(C)[C@@H](C)Cc2ccccc2)n(C)n(-c2ccccc2)c1=O` [FAMPROFAZONE], the results for the AC50 at Cytochrome P450 2C19 (read-out: AC50) and on Cytochrome P450 2D6 were 15.8 µM (inconclusive) and 10 µM (inconclusive), respectively. For `COc1cc2nc(N3CCN(C(=O)OCc4ccccc4)[C@H](C(=O)NC(C)(C)C)C3)nc(N)c2cc1OC` [L-765314], the AC50 on Cytochrome P450 2D6 was 31.6 µM (inconclusive).
